Here are results for 3 compounds from patent EP0306826A1, “N-(substituted alkylidene)fused bicycloalkylidene and hetero-alkylidene quinolinamines, a process for their preparation and their use as medicaments” (HOECHST-ROUSSEL PHARMACEUTICALS INCORPORATED, priority 1987, dated 1989).

For one assay, the target named is acetylcholinesterase (Homo sapiens, UniProt P22303). The assay is described as follows: Acetylcholinesterase Inhibition Assay (photometric method of Ellman et al.). The format is biochemical. For orientation: Ellman's reagent forms a yellow product with free thiols.
The next assay deals with mice. The assay is described as follows: Dark Avoidance Assay (reversal of scopolamine induced memory deficit). In kind it is in vivo. On the procedure: In this assay mice are tested for their ability to remember an unpleasant stimulus for a period of 24 hours. A mouse is placed in a chamber that contains a dark compartment; a strong incandescent light drives it to the dark compartment, where an electric shock is administered through metal plates on the floor. The animal is removed from the testing apparatus and tested again, 24 hours later, for the ability to remember the electric shock.
If scopolamine, an anticholinergic that is known to cause memory impairment, is administered before an animal's initial exposure to the test chamber, the animal re-enters the dark compartment shortly after being placed in the test chamber 24 hours later. This effect of scopolamine is blocked by an active test compound, resulting in a greater interval before re-entry into the dark compartment.
The test results are expressed as the percent of a group of animals in which the effect of scopolamine is blocked, as manifested by an increased interval between being placed in the test chamber and re-entering the dark compartment.

Chain of acetylcholinesterase (P22303 32-614): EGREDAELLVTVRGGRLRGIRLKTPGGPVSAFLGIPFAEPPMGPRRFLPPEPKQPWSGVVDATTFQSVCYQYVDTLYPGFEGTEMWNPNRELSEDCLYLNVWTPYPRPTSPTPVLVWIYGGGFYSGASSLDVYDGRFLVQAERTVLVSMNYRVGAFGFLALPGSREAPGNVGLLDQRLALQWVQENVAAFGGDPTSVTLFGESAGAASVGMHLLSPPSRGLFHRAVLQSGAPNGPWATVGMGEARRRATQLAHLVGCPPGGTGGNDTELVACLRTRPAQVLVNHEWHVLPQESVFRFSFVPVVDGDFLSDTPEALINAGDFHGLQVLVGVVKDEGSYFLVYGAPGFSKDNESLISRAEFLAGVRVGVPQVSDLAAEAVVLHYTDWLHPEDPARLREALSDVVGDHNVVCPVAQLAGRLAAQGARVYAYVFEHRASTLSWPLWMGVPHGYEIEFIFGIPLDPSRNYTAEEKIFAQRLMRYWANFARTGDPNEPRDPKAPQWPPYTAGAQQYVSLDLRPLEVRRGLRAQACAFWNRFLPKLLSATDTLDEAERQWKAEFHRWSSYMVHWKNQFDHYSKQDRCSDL

As a reminder, the IC50 is the concentration needed to halve the response being measured. `C(=Nc1c2c(nc3ccccc13)C1CCC2C1)c1ccccc1` (stereo not shown) [1,4-Methano-N-(phenylmethylene)-1,2,3,4-tetrahydro-9-acridinamine] gave an IC50 against acetylcholinesterase of 12 µM. In addition, in the assay on mice (mice, dose 0.31 mg/kg of body weight, s.c, retest 24 hours later), the “% of Animals with Scopolamine Induced Memory Deficit Reversal” value was 27%.

In turn, `FC(F)(F)c1ccc2c(N=Cc3ccccc3)c3c(nc2c1)C1CCC3C1` (stereo not shown) [1,4-Methano-N-(phenylmethylene)-6-trifluoromethyl-1,2,3,4-tetrahydro-9-acridinamine] yielded a half-maximal inhibitory concentration (IC50) against acetylcholinesterase of 22 µM. This counts as double-digit micromolar.

Consider `CNC(=O)Oc1ccc2c(c1)[C@]1(C)CCN(C)[C@@H]1N2C` [Physostigmine, reference compound], for which the “% of Animals with Scopolamine Induced Memory Deficit Reversal” value with mice (mouse, in vivo, 0.31 mg/kg) is reported as 20%.
